Measurements taken from ChEMBL document CHEMBL1157423, “Structural and stereochemical studies of alpha-methylene-gamma-lactone-bearing cembrane diterpenoids from a south china sea soft coral Lobophytum crassum” (2008).

Experiments:
[1] = tested on: A549; assay: Cytotoxicity against human A549 cells at 10 uM/L; format: functional; conditions: read-out: GI
[2] = tested on: P388; assay: Cytotoxicity against mouse P388 cells at 10 uM/L; format: functional; conditions: read-out: GI

SMILES | inhibition of growth at 10 µM [1] [%] | inhibition of growth at 10 µM [2] [%]
C=C1C(=O)O[C@H]2C/C(C)=C/CC/C(C)=C/CC/C(CO)=C/C[C@H]12 [3-DEHYDROXYLPRESINULAROLIDE B] | 95.7 | 100
C=C1C(=O)O[C@@H]2[C@@H]1C/C=C(\CO)CC/C=C(\C)CC/C=C(\C)[C@H]2O [PRESINULAROLIDE B] | 64 | –
C=C1C(=O)O[C@@H]2[C@@H]1C[C@H]1O[C@]1(CO)CC/C=C(\C)CC/C=C(\C)[C@H]2O [SINULAROLIDE B] | – | 100
C=C1C(=O)O[C@@H]2[C@@H]1C[C@H]1O[C@]1(CO)CC/C=C(\C)CC/C=C(\C)[C@@H]2O [SINULAROLIDE C] | – | 63.8
